The target in assay [1] is T1, Estrogen receptor beta (Homo sapiens, UniProt Q92731). In words: Antagonist activity at ERbeta-LBD in human U2OS cells transfected with Gal4-DBD assessed as inhibition of transactivation activity after 18 hrs by luciferase reporter gene assay. The format is functional, cell-based. A general note: Reporter assays use an easily measured gene product as a stand-in for the process of interest.

Assay [2] addresses T2, Mineralocorticoid receptor (Homo sapiens, UniProt P08235).
T2 sequence (P08235 whole entry): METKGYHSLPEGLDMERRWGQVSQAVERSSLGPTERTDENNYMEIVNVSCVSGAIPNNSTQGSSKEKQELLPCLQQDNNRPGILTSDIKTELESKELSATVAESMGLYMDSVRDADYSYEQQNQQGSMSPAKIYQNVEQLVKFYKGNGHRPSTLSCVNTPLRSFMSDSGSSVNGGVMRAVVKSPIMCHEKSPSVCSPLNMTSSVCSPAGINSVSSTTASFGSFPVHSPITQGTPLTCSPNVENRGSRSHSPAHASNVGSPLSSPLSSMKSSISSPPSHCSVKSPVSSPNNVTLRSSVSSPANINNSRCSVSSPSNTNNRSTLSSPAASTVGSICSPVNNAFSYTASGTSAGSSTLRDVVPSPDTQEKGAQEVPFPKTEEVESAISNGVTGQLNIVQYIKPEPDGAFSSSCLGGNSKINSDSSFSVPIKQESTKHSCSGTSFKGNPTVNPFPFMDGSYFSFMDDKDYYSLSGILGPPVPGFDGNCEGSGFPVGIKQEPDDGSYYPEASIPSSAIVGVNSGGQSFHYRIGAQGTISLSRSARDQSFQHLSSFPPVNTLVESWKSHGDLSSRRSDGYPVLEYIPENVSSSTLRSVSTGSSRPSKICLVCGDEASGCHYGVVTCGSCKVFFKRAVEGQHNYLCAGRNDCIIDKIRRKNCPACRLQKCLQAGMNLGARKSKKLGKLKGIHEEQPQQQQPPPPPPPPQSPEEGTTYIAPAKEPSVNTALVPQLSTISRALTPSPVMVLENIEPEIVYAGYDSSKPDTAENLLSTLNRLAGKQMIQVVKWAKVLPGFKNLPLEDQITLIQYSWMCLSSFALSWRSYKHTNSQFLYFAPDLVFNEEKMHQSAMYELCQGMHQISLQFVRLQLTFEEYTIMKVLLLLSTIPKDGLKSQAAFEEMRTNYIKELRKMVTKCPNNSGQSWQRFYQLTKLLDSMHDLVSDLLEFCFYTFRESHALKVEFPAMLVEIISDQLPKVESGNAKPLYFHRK
In words: Antagonist activity at mineralocorticoid receptor-LBD in human U2OS cells transfected with Gal4-DBD assessed as inhibition of transactivation activity after 18 hrs by luciferase reporter gene assay. It is filed as functional, cell-based. As to conditions: for pIC50: u2os.

Assay [3] addresses T2, Mineralocorticoid receptor. As to the kind of experiment: Agonist activity at mineralocorticoid receptor-LBD in human U2OS cells transfected with Gal4-DBD assessed as increase of transactivation activity after 18 hrs by luciferase reporter gene assay. The format is functional, cell-based.
Assay [4] deals with T3, Estrogen receptor (Homo sapiens, UniProt P03372).
T3 sequence (P03372 whole entry): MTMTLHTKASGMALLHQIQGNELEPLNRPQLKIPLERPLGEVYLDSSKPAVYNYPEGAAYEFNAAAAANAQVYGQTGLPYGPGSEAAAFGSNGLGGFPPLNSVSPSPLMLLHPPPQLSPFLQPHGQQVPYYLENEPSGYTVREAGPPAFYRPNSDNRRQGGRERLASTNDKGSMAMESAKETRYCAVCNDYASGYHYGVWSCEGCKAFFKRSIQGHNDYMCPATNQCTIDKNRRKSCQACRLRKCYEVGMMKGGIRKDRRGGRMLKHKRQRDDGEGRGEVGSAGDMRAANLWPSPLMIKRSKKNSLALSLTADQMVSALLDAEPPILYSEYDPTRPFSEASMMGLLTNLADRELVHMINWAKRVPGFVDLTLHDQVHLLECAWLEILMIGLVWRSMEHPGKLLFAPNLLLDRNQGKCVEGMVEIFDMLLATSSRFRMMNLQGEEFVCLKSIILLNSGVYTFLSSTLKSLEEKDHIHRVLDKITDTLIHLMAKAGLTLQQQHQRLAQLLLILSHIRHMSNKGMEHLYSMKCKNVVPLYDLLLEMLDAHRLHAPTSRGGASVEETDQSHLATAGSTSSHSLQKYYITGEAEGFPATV
As to the kind of experiment: Agonist activity at ERalpha-LBD in human U2OS cells transfected with Gal4-DBD assessed as increase of transactivation activity after 18 hrs by luciferase reporter gene assay. The format is functional, cell-based. As to conditions: for pEC50: u2os.

Assay [5] concerns the target T3, Estrogen receptor. In words: Antagonist activity at ERalpha-LBD in human U2OS cells transfected with Gal4-DBD assessed as inhibition of transactivation activity after 18 hrs by luciferase reporter gene assay. The format is functional, cell-based.
Assay [6] has as its target T4, Glucocorticoid receptor (Homo sapiens, UniProt P04150).
T4 sequence (P04150 whole entry): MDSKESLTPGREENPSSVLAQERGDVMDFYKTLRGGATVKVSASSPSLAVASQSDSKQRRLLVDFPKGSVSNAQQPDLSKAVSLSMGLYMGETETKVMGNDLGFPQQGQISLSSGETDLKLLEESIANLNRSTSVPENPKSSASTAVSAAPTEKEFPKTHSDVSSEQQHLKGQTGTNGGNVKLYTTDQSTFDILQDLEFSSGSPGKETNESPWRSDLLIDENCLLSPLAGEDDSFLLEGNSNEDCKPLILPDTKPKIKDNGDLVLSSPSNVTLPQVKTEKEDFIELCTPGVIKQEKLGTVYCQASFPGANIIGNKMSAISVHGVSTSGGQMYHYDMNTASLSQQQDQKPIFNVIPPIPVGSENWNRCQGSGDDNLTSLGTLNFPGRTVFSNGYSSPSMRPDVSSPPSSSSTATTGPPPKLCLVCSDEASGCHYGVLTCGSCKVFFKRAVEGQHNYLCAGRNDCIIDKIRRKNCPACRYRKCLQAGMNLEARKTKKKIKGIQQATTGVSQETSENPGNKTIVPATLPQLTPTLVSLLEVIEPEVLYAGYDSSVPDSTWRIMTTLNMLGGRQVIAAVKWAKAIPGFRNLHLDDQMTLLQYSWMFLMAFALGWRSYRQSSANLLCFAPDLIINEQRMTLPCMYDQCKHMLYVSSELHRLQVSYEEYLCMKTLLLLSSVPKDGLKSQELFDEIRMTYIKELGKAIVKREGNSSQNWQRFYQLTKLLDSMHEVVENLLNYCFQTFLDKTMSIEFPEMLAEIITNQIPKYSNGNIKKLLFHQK
Description: Agonist activity at glucocorticoid receptor-LBD in human U2OS cells transfected with Gal4-DBD assessed as increase of transactivation activity after 18 hrs by luciferase reporter gene assay

Assay [7] has as its target T4, Glucocorticoid receptor. This is another data set of the same source.
Description: Antagonist activity at glucocorticoid receptor-LBD in human U2OS cells transfected with Gal4-DBD assessed as inhibition of transactivation activity after 18 hrs by luciferase reporter gene assay
The target of assay [8] is T1, Estrogen receptor beta. In words: Agonist activity at ERbeta-LBD in human U2OS cells transfected with Gal4-DBD assessed as increase of transactivation activity after 18 hrs by luciferase reporter gene assay. It is filed as functional, cell-based. As to conditions: for pEC50: u2os.
Assay [9] deals with T1, Estrogen receptor beta. As to the kind of experiment: Agonist activity at ERbeta-LBD in human U2OS cells transfected with Gal4-DBD assessed as increase of transactivation activity after 18 hrs by luciferase reporter gene assay relative to 17-beta-estradiol. It is filed as functional, cell-based.

We go through 10 compounds from ChEMBL document CHEMBL1255573, “Synthesis and biochemical characterization of a series of 17α-perfluoroalkylated estradiols as selective ligands for estrogen receptor α” (J Med Chem, 2010).

T1 sequence (Q92731 whole entry, the tested form may be a part): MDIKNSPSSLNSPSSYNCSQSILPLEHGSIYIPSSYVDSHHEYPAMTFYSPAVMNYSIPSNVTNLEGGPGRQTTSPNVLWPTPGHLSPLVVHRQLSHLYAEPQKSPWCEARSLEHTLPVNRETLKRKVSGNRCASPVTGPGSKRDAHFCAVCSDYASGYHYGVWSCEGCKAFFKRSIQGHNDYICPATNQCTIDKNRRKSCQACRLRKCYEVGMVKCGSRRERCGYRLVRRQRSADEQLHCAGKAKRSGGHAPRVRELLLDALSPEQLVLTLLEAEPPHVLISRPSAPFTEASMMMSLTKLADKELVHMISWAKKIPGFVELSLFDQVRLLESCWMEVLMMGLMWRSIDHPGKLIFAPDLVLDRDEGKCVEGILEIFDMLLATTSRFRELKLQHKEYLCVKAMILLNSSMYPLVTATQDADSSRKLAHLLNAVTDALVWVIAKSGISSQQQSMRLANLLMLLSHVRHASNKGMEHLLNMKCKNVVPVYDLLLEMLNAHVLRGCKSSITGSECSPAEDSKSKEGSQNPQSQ

Take `C[C@]12CC[C@@H]3c4ccc(O)cc4CC[C@H]3[C@@H]1CC[C@@]2(O)C/C=C/CC(F)(C(F)(F)F)C(F)(F)F`: the IC50 (commonly the midpoint of a concentration-inhibition curve) on Estrogen receptor beta [1] is less than 4.05 µM; in assay [2] it was 5.14 µM; at Estrogen receptor [5], less than 15.8 µM; against Glucocorticoid receptor [7], less than 13.5 µM. For the same compound, the EC50 (as a rule, the midpoint of the concentration-response curve) in assay [3] is less than 15.8 µM; at Estrogen receptor [4] it was 0.403 µM; at Glucocorticoid receptor [6], less than 15.8 µM. Further, at Estrogen receptor beta [8], the pEC50 – broadly, the EC50 on a negative log10 scale, so that one unit is a factor of ten – is reported as greater than 4.8.
`C[C@]12CC[C@@H]3c4ccc(O)cc4CC[C@H]3[C@@H]1CC[C@@]2(O)C/C=C/CC(F)(F)C(F)(F)C(F)(F)C(F)(F)C(F)(F)C(F)(F)F`: the Activity on Estrogen receptor beta [9] was determined as 0.88%. The IC50 is less than 15.8 µM at Estrogen receptor beta [1], less than 4.82 µM in [2], less than 15.8 µM at Estrogen receptor [5] and less than 15.8 µM against Glucocorticoid receptor [7]. The EC50 in assay [3] is less than 15.8 µM; at Estrogen receptor [4] it was 1.03 µM; at Glucocorticoid receptor [6] it was less than 15.8 µM; at Estrogen receptor beta [8], 0.052 µM.
For `C[C@]12CC[C@@H]3c4ccc(O)cc4CC[C@H]3[C@@H]1CC[C@@]2(O)/C=C/CC(F)(F)C(F)(F)C(F)(F)C(F)(F)C(F)(F)C(F)(F)F`, the IC50 was less than 11.9 µM on Estrogen receptor beta [1], less than 5.36 µM in assay [2], less than 15.8 µM on Estrogen receptor [5] and less than 15.8 µM against Glucocorticoid receptor [7]. The EC50 in [3] is less than 15.8 µM; at Estrogen receptor [4], 2.08 µM; on Glucocorticoid receptor [6], less than 15.8 µM; at Estrogen receptor beta [8], less than 2.75 µM.
With `COc1ccc2c(c1)CC[C@@H]1[C@@H]2CC[C@@]2(C)[C@H]1CC[C@@]2(O)C/C=C/CC(F)(F)C(F)(F)C(F)(F)C(F)(F)C(F)(F)C(F)(F)F`, the IC50 on Estrogen receptor beta [1], on Estrogen receptor [5] and against Glucocorticoid receptor [7] was less than 15.8 µM each time. Also, in [2], the pIC50 (as a rule, the IC50 on a negative log10 scale, so that one unit is a factor of ten) is recorded as greater than 4.8. Further, the results for the EC50 (in assay [3]; on Glucocorticoid receptor [6]) were less than 15.8 µM and 0.00673 µM, respectively. Moreover, the pEC50 on Estrogen receptor [4] was greater than 4.8; on Estrogen receptor beta [8] it was greater than 4.902.
Consider `COc1ccc2c(c1)CC[C@@H]1[C@@H]2CC[C@@]2(C)[C@H]1CC[C@@]2(O)C/C=C/CC(F)(F)C(F)(F)C(F)(F)F`, for which the IC50 at Estrogen receptor beta [1], on Estrogen receptor [5] and against Glucocorticoid receptor [7] was less than 15.8 µM throughout. Moreover, the pIC50 in assay [2] is recorded as greater than 4.8. Besides, the results for the EC50 (in assay [3]; on Estrogen receptor [4]; on Glucocorticoid receptor [6]) were less than 15.8 µM, 1.66 µM and less than 15.8 µM, respectively. For the same compound, the pEC50 at Estrogen receptor beta [8] is given as greater than 4.817.
Consider `COc1ccc2c(c1)CC[C@@H]1[C@@H]2CC[C@@]2(C)[C@H]1CC[C@@]2(O)/C=C/CC(F)(F)C(F)(F)C(F)(F)F`, for which the Activity at Estrogen receptor beta [9] came to 0.01%. Also, the IC50 on Estrogen receptor beta [1] was less than 15.8 µM; at Estrogen receptor [5] it was less than 15.8 µM; against Glucocorticoid receptor [7], less than 9.25 µM. Besides, the pIC50 in assay [2] is on record as greater than 4.841. In addition, the concentration giving a half-maximal response (EC50) in [3] is less than 15.8 µM; at Estrogen receptor [4] it was 4.03 µM; on Glucocorticoid receptor [6] it was less than 15.8 µM; on Estrogen receptor beta [8], 5.19 µM.
On to `C[C@]12CC[C@@H]3c4ccc(O)cc4CC[C@H]3[C@@H]1CC[C@@]2(O)C/C=C/CC(F)(F)C(F)(F)C(F)(F)F`, for which the Activity at Estrogen receptor beta [9] came to 0.02%. For the same compound, the IC50 is less than 15.8 µM on Estrogen receptor beta [1], less than 15.8 µM at Estrogen receptor [5] and less than 5.5 µM at Glucocorticoid receptor [7]. Also, the pIC50 in assay [2] is on record as greater than 4.901. The EC50 was less than 15.8 µM in [3], 0.485 µM at Estrogen receptor [4], less than 15.8 µM at Glucocorticoid receptor [6] and 2.4 µM on Estrogen receptor beta [8].
On to `C[C@]12CC[C@@H]3c4ccc(O)cc4CC[C@H]3[C@@H]1CC[C@@]2(O)/C=C/CC(F)(F)C(F)(F)C(F)(F)F`, for which the Activity at Estrogen receptor beta [9] was found to be 0.35%. Moreover, the IC50 is less than 12.4 µM at Estrogen receptor beta [1], 3.81 µM in [2], less than 15.8 µM at Estrogen receptor [5] and 3.13 µM against Glucocorticoid receptor [7]. For the same compound, the EC50 in [3] was less than 15.8 µM; at Estrogen receptor [4], 0.0355 µM; on Glucocorticoid receptor [6] it was less than 15.8 µM; at Estrogen receptor beta [8], 0.129 µM.
Turning to `C[C@]12CC[C@@H]3c4ccc(O)cc4CC[C@H]3[C@@H]1CC[C@@]2(O)/C=C/CC(F)(C(F)(F)F)C(F)(F)F`, the IC50 at Estrogen receptor beta [1] is less than 15.7 µM; in assay [2], less than 6.65 µM; at Estrogen receptor [5], less than 15.8 µM; at Glucocorticoid receptor [7] it was 13.6 µM. Also, the figures for the concentration for a half-maximal effect (EC50) (in assay [3]; at Estrogen receptor [4]; at Glucocorticoid receptor [6]) were less than 15.8 µM, 9.95 µM and less than 15.8 µM, respectively. Moreover, the pEC50 at Estrogen receptor beta [8] is listed as greater than 4.713.
With `COc1ccc2c(c1)CC[C@@H]1[C@@H]2CC[C@@]2(C)[C@H]1CC[C@@]2(O)/C=C/CC(F)(F)C(F)(F)C(F)(F)C(F)(F)C(F)(F)C(F)(F)F`, the half-maximal inhibitory concentration (IC50) at Estrogen receptor beta [1], at Estrogen receptor [5] and against Glucocorticoid receptor [7] was less than 15.8 µM each time. Also, the negative-log IC50 (pIC50) in assay [2] was greater than 4.8. The EC50 was less than 15.8 µM in assay [3], less than 15.8 µM on Glucocorticoid receptor [6] and less than 8.34 µM at Estrogen receptor beta [8]. Besides, the pEC50 on Estrogen receptor [4] is listed as greater than 4.8.
